Measured values as given in patent US7517894B2, “VEGFR-2 and VEGFR-3 inhibitory anthranilamide pyridines” (Bayer Schering Pharma AG, priority 2003, dated 2009).

Legend:
VEGFR II (KDR) = VEGFR II (KDR) (Homo sapiens, UniProt P35968); assay: Inhibition of the KDR kinase activity (33P-ATP, poly-(Glu4Tyr) phosphocellulose filter assay); type: biochemical; settings: 10 minutes at room temperature; phosphate incorporation into poly-(Glu4Tyr)
Method: • Stock solution A: 3 mmol of ATP in water, pH 7.0 (−70° C.) • Stock solution B: g-33P-ATP 1 mCi/100 μl • Stock solution C: poly-(Glu4Tyr) 10 mg/ml in water Solution for Dilutions • Substrate solvent: 10 mmol of DTT, 10 mmol of manganese chloride, 100 mmol of magnesium chloride • Enzyme solution: 120 mmol of tris/HCl, pH 7.5, 10 μM of sodium vanadium oxide Sample Application 1
In a microtiter plate (without protein binding) that tapers to a point, 10 μl of substrate mix (10 μl of volume of ATP stock solution A+25 μCi of g-33P-ATP (about 2.5 μl of stock solution B)+30 μl of poly-(Glu4Tyr) stock solution C+1.21 ml of substrate solvent), 10 μl of inhibitor solution (substances corresponding to the dilutions, 3% DMSO in substrate solvent as a control) and 10 μl of enzyme solution (11.25 μg of enzyme stock solution (KDR or FLT-1 kinase) are added at 4° C. in 1.25 ml of enzyme solution (dilute). It is thoroughly mixed and incubated for 10 minutes at room temperature. Then, 10 μl of stop solution (250 mmol of EDTA, pH 7.0) is added, mixed, and 10 μl of the solution is transferred to a P 81 phosphocellulose filter. Then, it is washed several times in 0.1 M phosphoric acid. The filter paper is dried, coated with Meltilex and measured in a microbeta counter.
The IC50 values are determined from the inhibitor concentration, which is necessary to inhibit the phosphate incorporation to 50% of the uninhibited incorporation after removal of the blank reading (EDTA-stopped reaction).

[1] = target: T1, human cytochrome P 450 isoenzyme (3A4) (Homo sapiens, UniProt P08684); assay: Cytochrome P450 inhibition (Crespi et al.); type: in vitro ADME; settings: baculovirus/insect cell-expressed human isoenzyme 3A4
T1 construct: host or cells: baculovirus/insect cells
Method: The cytochrome P450 inhibition was performed according to the publication of Crespi et al. (Anal. Biochem., 248, 188-190 (1997)) with use of baculovirus/insect cell-expressed, human cytochrome P 450 isoenzyme (3A4).

T1 sequence (P08684 whole entry): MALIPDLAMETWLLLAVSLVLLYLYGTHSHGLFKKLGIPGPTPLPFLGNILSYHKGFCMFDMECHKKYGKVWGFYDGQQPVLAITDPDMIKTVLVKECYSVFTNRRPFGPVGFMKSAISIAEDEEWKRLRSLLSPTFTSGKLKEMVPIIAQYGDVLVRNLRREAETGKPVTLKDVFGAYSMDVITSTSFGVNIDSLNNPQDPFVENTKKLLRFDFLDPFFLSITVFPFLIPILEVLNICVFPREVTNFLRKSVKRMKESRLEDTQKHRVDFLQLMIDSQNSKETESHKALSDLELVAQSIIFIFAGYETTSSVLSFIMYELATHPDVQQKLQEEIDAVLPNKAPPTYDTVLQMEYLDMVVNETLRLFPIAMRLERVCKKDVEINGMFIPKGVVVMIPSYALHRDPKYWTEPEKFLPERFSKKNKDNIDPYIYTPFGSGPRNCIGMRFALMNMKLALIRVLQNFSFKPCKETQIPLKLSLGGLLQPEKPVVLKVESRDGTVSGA
Sequence of VEGFR II (KDR) (P35968 20-1356): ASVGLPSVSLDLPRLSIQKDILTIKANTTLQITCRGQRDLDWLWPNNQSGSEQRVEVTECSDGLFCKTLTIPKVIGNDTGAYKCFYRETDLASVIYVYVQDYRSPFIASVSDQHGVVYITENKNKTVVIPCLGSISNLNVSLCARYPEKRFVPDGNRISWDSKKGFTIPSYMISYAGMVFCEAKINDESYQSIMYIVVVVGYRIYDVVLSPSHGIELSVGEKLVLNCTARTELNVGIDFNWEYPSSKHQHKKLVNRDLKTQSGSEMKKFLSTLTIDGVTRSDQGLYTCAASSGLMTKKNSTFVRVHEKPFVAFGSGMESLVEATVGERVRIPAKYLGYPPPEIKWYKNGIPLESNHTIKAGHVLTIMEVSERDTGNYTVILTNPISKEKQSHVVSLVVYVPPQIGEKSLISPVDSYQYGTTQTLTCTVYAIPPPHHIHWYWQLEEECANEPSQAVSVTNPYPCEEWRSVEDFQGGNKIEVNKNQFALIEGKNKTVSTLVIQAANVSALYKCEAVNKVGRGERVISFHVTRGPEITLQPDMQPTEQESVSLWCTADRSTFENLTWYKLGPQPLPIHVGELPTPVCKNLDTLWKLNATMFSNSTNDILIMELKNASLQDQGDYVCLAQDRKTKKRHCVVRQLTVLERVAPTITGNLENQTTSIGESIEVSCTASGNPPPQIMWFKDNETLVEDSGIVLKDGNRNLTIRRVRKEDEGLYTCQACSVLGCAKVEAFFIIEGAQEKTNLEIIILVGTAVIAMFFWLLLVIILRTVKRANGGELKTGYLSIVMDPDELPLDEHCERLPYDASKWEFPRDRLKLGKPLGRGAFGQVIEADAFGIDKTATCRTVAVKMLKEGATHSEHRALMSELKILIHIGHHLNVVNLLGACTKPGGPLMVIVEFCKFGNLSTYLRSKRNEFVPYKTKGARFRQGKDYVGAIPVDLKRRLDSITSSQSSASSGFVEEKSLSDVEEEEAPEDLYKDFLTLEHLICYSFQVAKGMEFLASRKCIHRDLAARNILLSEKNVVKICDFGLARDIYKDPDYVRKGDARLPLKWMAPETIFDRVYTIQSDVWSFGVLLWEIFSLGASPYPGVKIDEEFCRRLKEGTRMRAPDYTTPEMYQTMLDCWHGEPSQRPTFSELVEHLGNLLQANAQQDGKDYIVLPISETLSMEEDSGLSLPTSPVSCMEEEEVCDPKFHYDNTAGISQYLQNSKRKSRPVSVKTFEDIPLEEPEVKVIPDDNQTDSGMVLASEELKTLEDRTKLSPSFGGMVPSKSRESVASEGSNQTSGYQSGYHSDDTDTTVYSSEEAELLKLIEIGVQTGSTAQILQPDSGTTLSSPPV

Row | Compound | IC50 (VEGFR II (KDR)) [µM] | IC50 [1] [µM] | melting point [°C]
1 | O=C(Nc1cc2ccccc2cn1)c1ccccc1NCc1ccnc(N2CCOCC2)c1 [Example 1.14] | 0.052 | > 30 | 
2 | Nc1cc(CNc2ccccc2C(=O)Nc2cc3ccccc3cn2)ccn1 [Example 2.1, 2-[(2-Amino-pyridin-4-ylmethyl)-amino]-N-isoquinolin-3-yl-benzamide] |  |  | 202
3 | CN(C)C(=O)Nc1cc(CNc2ccccc2C(=O)Nc2cc3ccccc3cn2)ccn1 [Example 3.30, 2-{[2-(3,3-Dimethyl-ureido)-pyridin-4-ylmethyl]-amino}-N-(3-isoquinolinyl)-benzamide] | 0.01 | 5.5 | 
4 | CC(=O)N(C)c1cc(CNc2ccccc2C(=O)Nc2cc3ccccc3cn2)ccn1 [Example 6.31, 2-{[2-(Acetyl-methyl-amino)-pyridin-4-ylmethyl]-amino}-N-isoquinolin-3-yl-benzamide] | 0.065 | 11 | 71
5 | O=C(Nc1cccc(C(F)(F)F)c1)c1ccccc1NCc1ccnc(N2C(=O)COCC2=O)c1 [Example 9.1, 2-{[2-(3,5-Dioxo-morpholin-4-yl)-pyridin-4-ylmethyl]-amino}-N-(3-trifluoromethyl-phenyl)-benzamide] |  |  | 201.9

Next, values leading:

Row | IC50 (VEGFR II (KDR)) [µM] | IC50 [1] [µM] | melting point [°C] | Compound
6 |  |  | 200 | Nc1cc(CNc2ccccc2C(=O)Nc2ccc3[nH]ncc3c2)ccn1 [Example 2.2, 2-[(2-Amino-pyridin-4-ylmethyl)-amino]-N-(1H-indazol-5-yl)-benzamide]
7 | 0.012 | 14 |  | CNC(=O)Nc1cc(CNc2ccccc2C(=O)Nc2cc3ccccc3cn2)ccn1 [Example 3.24]
8 | 0.024 | 10 |  | CCOC(=O)Nc1cc(CNc2ccccc2C(=O)Nc2ccc3cn[nH]c3c2)ccn1 [Example 6.22]
